{
  "source": "patent US20110105326A1",
  "about": "“Method for Enhancing the Rainfastness of Glyphosate” (BASF SE, priority 2008, published 2011)",
  "format_in_all_cases": "in vivo",
  "key": {"[1]": {"tested_on": "Echinochloa colonum (ECHCO)", "assay": "herbicidal action with/without simulated rainfall after treatment, Echinochloa colonum", "design": "key: % damage vs untreated control; 0 = no damage, 100 = complete destruction", "settings": "180 g/ha lactofen, 1080 g/ha glyphosate; for herbicidal action against Echinochloa colonum (ECHCO): control without simulated rainfall, Example 12.1", "description": "(§1) The enhancement of the rainfastness of glyphosate was determined via the herbicidal activity of the mixture comprising glyphosate and the respective rainfastness enhancing herbicidal component B as well as of the single herbicidal components in relation to simulated rainfall at different time intervals.\n(§2) The evaluation of the damage caused by the method and the compositions the according to the present invention and the single herbicidal components was carried out using a scale from 0 to 100%, compared to the untreated control plots. Here, 0 means no damage and 100 means complete destruction of the plants of a respective weed or crop species.\n(§3) The application was performed with a fixed spayer system with air pressurization and with a tank spray volume of two liters. The speed of the spray device over the plants was adjusted for a spray volume of 200 I/ha. The spray device was a spray barr with four nozzles from the type Teejet XR 11002VS with a space of 50 cm between each nozzle.\n(§4) The application was performed at a weed stage of 6 to 8 leaves. After the application of the formulated herbicides the leaves were washed through rain of 20 mm using a fixed rain simulator system at following time interval: 15 min, 30 min, 1, 2, 3, 4 and 6 hours after treatment."}, "[2]": {"tested_on": "Brachiaria decumbens (BRADE)", "assay": "herbicidal action with/without simulated rainfall after treatment, Brachiaria decumbens", "design": "key: % damage vs untreated control; 0 = no damage, 100 = complete destruction", "settings": "180 g/ha lactofen, 1080 g/ha glyphosate; for herbicidal action against Brachiaria decumbens (BRADE): control without simulated rainfall, Example 14.1; for herbicidal action aaainst BRADE: simulated rainfall 30 min after treatment, Example 14.2; for herbicidal action against BRADE: simulated rainfall 6 hours after treatment, Example 14.3", "description": "as §1, §2, §3, §4"}, "[3]": {"tested_on": "Euphorbia heterophylla (EUPHO)", "assay": "herbicidal action with/without simulated rainfall after treatment, Euphorbia heterophylla", "design": "key: % damage vs untreated control: 0 = no damage, 100 = complete destruction", "settings": "180 g/ha lactofen, 1080 g/ha glyphosate; for herbicidal action against Euphorbia heterophylla (EUPHO): control without simulated rainfall, Example 13.1", "description": "as §1, §2, §3, §4"}},
  "data": [
    {"smiles": "CCOC(=O)C(C)OC(=O)c1cc(Oc2ccc(C(F)(F)F)cc2Cl)ccc1[N+](=O)[O-]", "note": "(stereo not drawn) [Lactofen, lactofen]", "values": [
      {"measurement": "herbicidal action against Echinochloa colonum (ECHCO)", "setting": "[1]; 2 DAA", "result": 61.66},
      {"measurement": "herbicidal action against Echinochloa colonum (ECHCO)", "setting": "[1]; 3 DAA", "result": 76.66},
      {"measurement": "herbicidal action against Echinochloa colonum (ECHCO)", "setting": "[1]; 7 DAA", "result": 75.33},
      {"measurement": "herbicidal action against ECHCO", "setting": "[1]; simulated rainfall 15 min after treatment, 2 DAA, Example 12.2", "result": 46.66},
      {"measurement": "herbicidal action against ECHCO", "setting": "[1]; simulated rainfall 15 min after treatment, 3 DAA, Example 12.2", "result": 57.66},
      {"measurement": "herbicidal action against ECHCO", "setting": "[1]; simulated rainfall 15 min after treatment, 7 DAA, Example 12.2", "result": 46.33},
      {"measurement": "herbicidal action against ECHCO", "setting": "[1]; simulated rainfall 30 min after treatment, 2 DAA, Example 12.3", "result": 53},
      {"measurement": "herbicidal action against ECHCO", "setting": "[1]; simulated rainfall 30 min after treatment, 3 DAA, Example 12.3", "result": 60},
      {"measurement": "herbicidal action against ECHCO", "setting": "[1]; simulated rainfall 30 min after treatment, 7 DAA, Example 12.3", "result": 46},
      {"measurement": "herbicidal action against ECHCO", "setting": "[1]; simulated rainfall 2 hours after treatment, 2 DAA, Example 12.4", "result": 48.33},
      {"measurement": "herbicidal action against ECHCO", "setting": "[1]; simulated rainfall 2 hours after treatment, 3 DAA, Example 12.4", "result": 63.33},
      {"measurement": "herbicidal action against ECHCO", "setting": "[1]; simulated rainfall 2 hours after treatment, 7 DAA, Example 12.4", "result": 39.33},
      {"measurement": "herbicidal action against Brachiaria decumbens (BRADE)", "setting": "[2]; 1 DAA", "result": 5},
      {"measurement": "herbicidal action against Brachiaria decumbens (BRADE)", "setting": "[2]; 2 DAA", "result": 9},
      {"measurement": "herbicidal action against Brachiaria decumbens (BRADE)", "setting": "[2]; 3 DAA", "result": 8.66},
      {"measurement": "herbicidal action against Brachiaria decumbens (BRADE)", "setting": "[2]; 7 DAA", "result": 14},
      {"measurement": "herbicidal action aaainst BRADE", "setting": "[2]; 1 DAA", "result": 5},
      {"measurement": "herbicidal action aaainst BRADE", "setting": "[2]; 2 DAA", "result": 18.33},
      {"measurement": "herbicidal action aaainst BRADE", "setting": "[2]; 3 DAA", "result": 24.66},
      {"measurement": "herbicidal action aaainst BRADE", "setting": "[2]; 7 DAA", "result": 26},
      {"measurement": "herbicidal action against BRADE", "setting": "[2]; 1 DAA", "result": 9.66},
      {"measurement": "herbicidal action against BRADE", "setting": "[2]; 2 DAA", "result": 16},
      {"measurement": "herbicidal action against BRADE", "setting": "[2]; 3 DAA", "result": 22.66},
      {"measurement": "herbicidal action against BRADE", "setting": "[2]; 7 DAA", "result": 25.33},
      {"measurement": "herbicidal action against Euphorbia heterophylla (EUPHO)", "setting": "[3]; 1 DAA", "result": 9.66},
      {"measurement": "herbicidal action against Euphorbia heterophylla (EUPHO)", "setting": "[3]; 2 DAA", "result": 19},
      {"measurement": "herbicidal action against Euphorbia heterophylla (EUPHO)", "setting": "[3]; 3 DAA", "result": 37},
      {"measurement": "herbicidal action against Euphorbia heterophylla (EUPHO)", "setting": "[3]; 7 DAA", "result": 47},
      {"measurement": "herbicidal action against EUPHO", "setting": "[3]; simulated rainfall 15 min after treatment, 1 DAA, Example 13.2", "result": 20.66},
      {"measurement": "herbicidal action against EUPHO", "setting": "[3]; simulated rainfall 15 min after treatment, 2 DAA, Example 13.2", "result": 39},
      {"measurement": "herbicidal action against EUPHO", "setting": "[3]; simulated rainfall 15 min after treatment, 3 DAA, Example 13.2", "result": 40},
      {"measurement": "herbicidal action against EUPHO", "setting": "[3]; simulated rainfall 15 min after treatment, 7 DAA, Example 13.2", "result": 74.33},
      {"measurement": "herbicidal action against EUPHO", "setting": "[3]; simulated rainfall 2 hours after treatment, 1 DAA, Example 13.3", "result": 18},
      {"measurement": "herbicidal action against EUPHO", "setting": "[3]; simulated rainfall 2 hours after treatment, 2 DAA, Example 13.3", "result": 42},
      {"measurement": "herbicidal action against EUPHO", "setting": "[3]; simulated rainfall 2 hours after treatment, 3 DAA, Example 13.3", "result": 39},
      {"measurement": "herbicidal action against EUPHO", "setting": "[3]; simulated rainfall 2 hours after treatment, 7 DAA, Example 13.3", "result": 73.33}
    ]}
  ]
}
